Laboratory results from US20240041042A1, “1-(PYRIDYL)-5-AZINYLPYRAZOLE DERIVATIVES, AND THEIR USE FOR CONTROL OF UNDESIRED PLANT GROWTH” (Bayer Aktiengesellschaft, priority 2020, published 2024).
Like-named read-outs stand apart in the source and are kept apart here.

Tests used:
Format in all cases: in vivo
[1] = test system: Matricaria inodora (MATIN); assay: Pre-emergence herbicidal action against MATIN
Outline: (§1)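 Pre-emergence soil-surface spray of compound, formulated as wettable powder or emulsion concentrate, in aqueous suspension or emulsion with 0.5% additive (600 l/ha; rate 320 g/ha or less). Activity rated visually after roughly 3 weeks in the greenhouse as a percentage of untreated controls, 0% meaning no difference.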

[2] = test system: Viola tricolor (VIOTR); assay: Pre-emergence herbicidal action against VIOTR
Outline: as §1

[3] = test system: Verconica persica (VERPE); assay: Post-emergence herbicidal action against VERPE
Outline: (§2)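 Rates were 320 g/ha or below, applied as aqueous WP/EC spray with 0.5% additive (600 l/ha) onto one-leaf-stage plants. About 3 weeks later in the greenhouse, damage was scored visually against untreated plants on a 0–100% scale, where 100% means plants died.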

[4] = test system: Polygonum convolvulus (POLCO); assay: Pre-emergence herbicidal action against POLCO
Outline: as §1

[5] = test system: Alopecurus myosuroides (ALOMY); assay: Post-emergence herbicidal action against ALOMY; conditions: visual rating about 3 weeks after treatment vs untreated controls (100% = plants have died, 0% = like control plants)
Outline: as §2

[6] = test system: Lolium rigidum (LOLRI); assay: Post-emergence herbicidal action against LOLRI
Outline: as §2

[7] = test system: Avena fatua (AVEFA); assay: Post-emergence herbicidal action against AVEFA; conditions: visual rating about 3 weeks after treatment
Outline: as §2

[8] = test system: Amaranthus retroflexus (AMARE); assay: Pre-emergence herbicidal action against AMARE; conditions: visual scoring after about 3 weeks vs untreated controls
Outline: as §1

[9] = test system: Echinochloa crus-galli (ECHCG); assay: Post-emergence herbicidal action against ECHCG
Outline: as §2

[10] = test system: Echinochloa crus-galli (ECHCG); assay: Pre-emergence herbicidal action against ECHCG
Outline: as §1

[11] = test system: Verconica persica (VERPE); assay: Pre-emergence herbicidal action against VERPE
Outline: as §1

[12] = test system: Alopecurus myosuroides (ALOMY); assay: Pre-emergence herbicidal action against ALOMY; conditions: scored visually after about 3 weeks, 100% = plants have died
Outline: as §1

[13] = test system: Abutilon theophrasti (ABUTH); assay: Post-emergence herbicidal action against ABUTH; conditions: visual rating about 3 weeks after treatment vs untreated controls (100% = plants have died, 0% = like control plants)
Outline: as §2

[14] = test system: Setaria viridis (SETVI); assay: Pre-emergence herbicidal action against SETVI
Outline: as §1

[15] = test system: Pharbitis purpurea (PHBPU); assay: Post-emergence herbicidal action against PHBPU
Outline: as §2

[16] = test system: Lolium rigidum (LOLRI); assay: Pre-emergence herbicidal action against LOLRI
Outline: as §1

[17] = test system: Avena fatua (AVEFA); assay: Pre-emergence herbicidal action against AVEFA; conditions: visual scoring after about 3 weeks vs untreated controls
Outline: as §1

[18] = test system: Pharbitis purpurea (PHBPU); assay: Pre-emergence herbicidal action against PHBPU
Outline: as §1

[19] = test system: Viola tricolor (VIOTR); assay: Post-emergence herbicidal action against VIOTR; conditions: 320 g/ha
Outline: as §2

[20] = test system: Abutilon theophrasti (ABUTH); assay: Pre-emergence herbicidal action against ABUTH; conditions: 100% = plants have died
Source text: Seeds of monocotyledonous and dicotyledonous weed plants and crop plants are placed in plastic or organic planting pots and covered with soil. The compounds of the invention, formulated in the form of wettable powders (WP) or as emulsion concentrates (EC), are then applied to the surface of the covering soil as aqueous suspension or emulsion with addition of 0.5% additive at a water application rate equivalent to 600 l/ha. After the treatment, the pots are placed in a greenhouse and kept under good growth conditions for the trial plants. After about 3 weeks, the effect of the preparations is scored visually in comparison with untreated controls as percentages. For example, 100% activity=the plants have died, 0% activity=like control plants.
Tables A1 to A13 below show the effects of selected compounds of the general formula (I) on various harmful plants and at an application rate corresponding to 320 g/ha or lower, which were obtained by the experimental procedure mentioned above. The appendices “a”, “b” and “c” give differentiation by dosage used with otherwise the same harmful plants tested.

[21] = test system: Setaria viridis (SETVI); assay: Post-emergence herbicidal action against SETVI
Outline: as §2

[22] = test system: Oryza sativa (ORYSA); conditions: crop plant compatibility
Outline: (§3)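 Visual rating (% effect vs. untreated plants; 100% = plant death) made about 3 weeks after treatment. Plants had been sprayed at one-leaf stage, 2–3 weeks post-sowing, with aqueous WP/EC preparations containing 0.5% additive, 600 l/ha water volume; a, b, c mark dose levels.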

[23] = test system: Amaranthus retroflexus (AMARE); assay: Post-emergence herbicidal action against AMARE
Outline: as §2

[24] = test system: Zea mays (ZEAMX); conditions: crop plant compatibility, 80 g/ha, effect vs untreated controls
Outline: as §3

[25] = Dosage column 320 g/ha (title prints 3200 g/ha), scored visually after about 3 weeks
[26] = 80 g/ha, effect in comparison to untreated controls
[27] = 80 g/ha, visual rating about 3 weeks after treatment vs untreated controls (100% = plants have died, 0% = like control plants)

| Compound | Pre-emergence action against MATIN in % ([1]; dosage 320 g/ha) | Pre-emergence action against VIOTR in % ([2]; 320 g/ha, Viola tricolor) | Pre-emergence action against VIOTR in % ([2]; dosage 80 g/ha) | Pre-emergence action against POLCO in % ([4]; dosage 80 g/ha) | Pre-emergence action against POLCO in % ([4]; dosage 320 g/ha) | Post-emergence action against LOLRI in % ([6]; dosage 80 g/ha) | Pre-emergence action against AMARE in % ([8]; 80 g/ha) | Pre-emergence action against AMARE in % ([8]; 320 g/ha) | Post-emergence action against ECHCG in % ([9]; dosage 80 g/ha) | Pre-emergence action against ECHCG in % ([10]; dosage 320 g/ha) | Pre-emergence action against VERPE in % ([11]; dosage 80 g/ha) | Pre-emergence action against VERPE in % ([11]; dosage 320 g/ha) | Pre-emergence action against ALOMY ([12]; 320 g/ha) | Pre-emergence action against SETVI in % ([14]; dosage 320 g/ha) | Post-emergence action against PHBPU in % ([15]; dosage 80 g/ha) | Pre-emergence action against LOLRI in % ([16]; dosage 80 g/ha) | Pre-emergence action against LOLRI in % ([16]; dosage 320 g/ha) | Pre-emergence action against AVEFA in % ([17]; 320 g/ha) | Pre-emergence action against PHBPU in % ([18]; dosage 320 g/ha) | Pre-emergence action against ABUTH [20, 25] | other results |
| --- | --- | --- | --- | --- | --- | --- | --- | --- | --- | --- | --- | --- | --- | --- | --- | --- | --- | --- | --- | --- | --- |
| CCOC(=O)[C@@H](C)Oc1nn(-c2nc(F)ccc2F)c(-c2cncc(F)c2)c1Br [Example I-388] | 90% | 100% | 100% | 90% | 90% | 80% | 90% | 100% | 90% | 100% | 90% | 100% | 100% | 100% | 80% | 80% | 100% | 90% | 90% | 90% | Pre-emergence action against MATIN in % ([1]; dosage 80 g/ha): 90%; Post-emergence action against VERPE in % ([3]; 320 g/ha, VERPE): 80%; Post-emergence action against VERPE in % ([3]; dosage 80 g/ha): 80%; Post-emergence action against ALOMY in % ([5]; 320 g/ha): 80%; Post-emergence action against LOLRI in % ([6]; dosage 320 g/ha): 80%; Post-emergence action against AVEFA in % ([7]; 320 g/ha): 80%; Post-emergence action against ECHCG in % ([9]; dosage 320 g/ha): 90%; Pre-emergence action against ECHCG in % ([10]; dosage 80 g/ha): 80%; Pre-emergence action against ALOMY ([12]; 80 g/ha): 80%; Post-emergence action against ABUTH in % ([13]; 320 g/ha): 80%; Pre-emergence action against SETVI in % ([14]; dosage 80 g/ha): 90%; Post-emergence action against PHBPU in % ([15]; dosage 320 g/ha): 100%; Pre-emergence action against PHBPU in % ([18]; dosage 80 g/ha): 90%; Post-emergence action against VIOTR in % [19]: 80%; Post-emergence action against SETVI in % ([21]; dosage 80 g/ha): 90%; Post-emergence action against SETVI in % ([21]; dosage 320 g/ha): 90% |
| COC(=O)[C@@H](C)Oc1nn(-c2ccccn2)c(-c2cncc(F)c2)c1Br [Example I-83] | 100% | 100% | 100% | 80% | 90% | 90% | 90% | 100% | 90% | 100% | 90% | 100% | 100% | 100% | 90% | 100% | 100% | 90% | 90% | 80% | Pre-emergence action against MATIN in % ([1]; dosage 80 g/ha): 90%; Post-emergence action against ORYSA in % ([22]; 20 g/ha, effect vs untreated controls): 0%; Post-emergence action against ORYSA in % [22, 26]: 20%; Post-emergence action against VERPE in % ([3]; dosage 80 g/ha): 80%; Post-emergence action against ALOMY in % ([5]; 80 g/ha): 100%; Post-emergence action against AVEFA in % ([7]; 80 g/ha): 100%; Pre-emergence action against ALOMY ([12]; 80 g/ha): 90%; Post-emergence action against ABUTH in % ([13]; 80 g/ha): 90%; Pre-emergence action against SETVI in % ([14]; dosage 80 g/ha): 90%; Pre-emergence action against AVEFA in % ([17]; 80 g/ha): 80%; Post-emergence action against AMARE in % [23, 27]: 90%; Pre-emergence action against PHBPU in % ([18]; dosage 80 g/ha): 80%; Post-emergence action against SETVI in % ([21]; dosage 80 g/ha): 90% |
| COC(=O)[C@@H](C)Oc1nn(-c2nc(F)ccc2F)c(-c2ccc(F)nc2)c1Cl [Example I-332] | 90% | 100% | 90% | 80% | 80% | 80% | 80% | 100% | 80% | 100% | 80% | 90% | 100% | 100% | 80% | 90% | 100% | 100% | 100% | 80% | Post-emergence action against ZEAMX in % [24]: 10%; Post-emergence action against ORYSA in % [22, 26]: 20%; Post-emergence action against VERPE in % ([3]; 320 g/ha, VERPE): 80%; Post-emergence action against ALOMY in % ([5]; 80 g/ha): 80%; Post-emergence action against ALOMY in % ([5]; 320 g/ha): 90%; Post-emergence action against LOLRI in % ([6]; dosage 320 g/ha): 90%; Post-emergence action against AVEFA in % ([7]; 80 g/ha): 80%; Post-emergence action against AVEFA in % ([7]; 320 g/ha): 90%; Post-emergence action against ECHCG in % ([9]; dosage 320 g/ha): 90%; Pre-emergence action against ECHCG in % ([10]; dosage 80 g/ha): 80%; Post-emergence action against ABUTH in % ([13]; 80 g/ha): 80%; Post-emergence action against ABUTH in % ([13]; 320 g/ha): 80%; Post-emergence action against PHBPU in % ([15]; dosage 320 g/ha): 80%; Post-emergence action against AMARE in % [23, 27]: 80%; Post-emergence action against AMARE in % ([23]; 320 g/ha, visual rating about 3 weeks after treatment): 80%; Post-emergence action against VIOTR in % [19]: 80%; Pre-emergence action against ABUTH ([20]; 80 g/ha, scored visually after about 3 weeks vs untreated controls, 0% = like control plants): 80%; Post-emergence action against SETVI in % ([21]; dosage 320 g/ha): 80% |
